Test systems include 786-0 renal; COLO 205 colon; HCT-116 colon; HL-60(TB) leukemia; HOP-62 NSCLC; K-562 leukemia; LOX IMVI melanoma; OVCAR-3 ovarian; OVCAR-5 ovarian.
Assay in all cases: NCI anticancer screen, dose series, 48 h

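48-hour exposure; five concentrations; linearly interpolated endpoints. At the GI50, growth is halved. At the TGI there is no net growth.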

On to `N#C/C(=C\c1cc(OCc2ccccc2)c(OCc2ccccc2)cn1)C(N)=O`, for which the TGI in the assay on 786-0 renal is greater than 100 µM; in the assay with COLO 205 colon it was greater than 100 µM; in the assay with HCT-116 colon, greater than 100 µM; with HL-60(TB) leukemia it was 36.9 µM; in the assay with HOP-62 NSCLC it was greater than 100 µM; with K-562 leukemia, greater than 100 µM. The TGI in the assay on LOX IMVI melanoma, in the assay with OVCAR-3 ovarian and in the assay with OVCAR-5 ovarian was greater than 100 µM throughout.
In the case of `O=C1NC2=C(CCCCC/C2=N\O)C12CCCCCC2`, the TGI in the assay on 786-0 renal, in the assay on COLO 205 colon, in the assay on HCT-116 colon, in the assay on HL-60(TB) leukemia, in the assay on HOP-62 NSCLC and with K-562 leukemia was greater than 100 µM throughout. In addition, the TGI with LOX IMVI melanoma, in the assay on OVCAR-3 ovarian and in the assay with OVCAR-5 ovarian was greater than 100 µM in each case.
Take `C[C@]12Cc3cn[nH]c3C(=O)C1CC[C@@H]1C2CC[C@@]2(C)C1CC[C@@H]2O` (some centres undefined): the TGI with 786-0 renal, with COLO 205 colon, in the assay with HCT-116 colon, in the assay with HL-60(TB) leukemia, in the assay on HOP-62 NSCLC and with K-562 leukemia was greater than 100 µM throughout. The TGI in the assay on LOX IMVI melanoma, in the assay on OVCAR-3 ovarian and in the assay on OVCAR-5 ovarian was greater than 100 µM throughout.
For the compound `O=C1/C(=C\c2ccccc2)CN(C(=O)CCN2CCCCC2)C/C1=C/c1ccccc1`, the TGI in the assay on 786-0 renal stood at 4.7 µM; in the assay on COLO 205 colon, 3.83 µM; in the assay with HCT-116 colon, 0.709 µM; with HL-60(TB) leukemia it was 1.17 µM; in the assay with HOP-62 NSCLC, 25.7 µM; in the assay with K-562 leukemia, 0.799 µM. Further, the figures for the TGI in the assay with LOX IMVI melanoma, in the assay with OVCAR-3 ovarian and in the assay with OVCAR-5 ovarian were 0.842 µM, 6.5 µM and 3.96 µM, respectively.
On to `CCc1cccc(C)c1NC(=O)CCc1nc(=S)[nH][nH]1`, for which the TGI with 786-0 renal, with HCT-116 colon, in the assay on HL-60(TB) leukemia, with HOP-62 NSCLC, with K-562 leukemia and in the assay on LOX IMVI melanoma was greater than 100 µM throughout. Further, the TGI with OVCAR-3 ovarian and in the assay with OVCAR-5 ovarian was greater than 100 µM each time.
With `CCCCCCCCCCCC[N+]1(CCCCCCCCCCCC)CCCC(C)C1` (centres undefined), the GI50 with 786-0 renal is 0.412 µM; with HCT-116 colon, 0.185 µM; in the assay on HL-60(TB) leukemia it was 0.174 µM; in the assay on LOX IMVI melanoma, 0.348 µM; in the assay with OVCAR-3 ovarian, 0.197 µM; in the assay with OVCAR-5 ovarian, 1.06 µM. Also, the TGI in the assay on 786-0 renal came out at 1.66 µM; in the assay on HCT-116 colon, 1.21 µM; in the assay on HL-60(TB) leukemia it was 0.666 µM; in the assay on LOX IMVI melanoma it was 1.39 µM; in the assay with OVCAR-3 ovarian, 0.569 µM; in the assay on OVCAR-5 ovarian, 2.29 µM.
As for `Cc1ccc2c(c1)CN1c3ccc(C)cc3CN2C1c1ccccc1O`, the TGI in the assay on 786-0 renal, with COLO 205 colon, in the assay on HCT-116 colon, in the assay on HL-60(TB) leukemia, in the assay with HOP-62 NSCLC and with K-562 leukemia was greater than 100 µM in each case. Further, the TGI with LOX IMVI melanoma, in the assay on OVCAR-3 ovarian and in the assay with OVCAR-5 ovarian was greater than 100 µM in each case.
As to `FC(F)(F)Oc1cccc(-c2cc(NCCCCCCNc3cc(-c4cccc(OC(F)(F)F)c4)nc4ccc(N5CCCC5)cc34)c3cc(N4CCCC4)ccc3n2)c1`, the GI50 in the assay on 786-0 renal was 1.8 µM; in the assay with HCT-116 colon, 2.21 µM; in the assay with HOP-62 NSCLC, 2.04 µM; in the assay with LOX IMVI melanoma, 1.85 µM; with OVCAR-3 ovarian, 1.83 µM; in the assay on OVCAR-5 ovarian, 1.76 µM. The TGI in the assay on 786-0 renal turned out to be 3.49 µM; with HCT-116 colon, 5.54 µM; in the assay with HOP-62 NSCLC, 4.44 µM; in the assay with LOX IMVI melanoma, 3.54 µM; with OVCAR-3 ovarian, 3.24 µM; in the assay with OVCAR-5 ovarian, 3.18 µM.
As to `Cc1nc(N)nc(CCC(=O)Nc2cccc(C(F)(F)F)c2)c1-c1ccc(Cl)cc1`, the TGI in the assay on 786-0 renal, in the assay on COLO 205 colon, in the assay on HCT-116 colon, in the assay with HL-60(TB) leukemia, in the assay with HOP-62 NSCLC and with K-562 leukemia was greater than 100 µM in each case. Besides, the TGI with OVCAR-3 ovarian and with OVCAR-5 ovarian was greater than 100 µM each time.
On to `N#CC(C(=O)C(=O)Nc1c(Cl)cccc1Cl)c1ccccc1` (centres undefined), for which the GI50 in the assay on 786-0 renal, with COLO 205 colon, with HL-60(TB) leukemia, in the assay on HOP-62 NSCLC, in the assay on K-562 leukemia and with LOX IMVI melanoma was greater than 100 µM each time. Further, the GI50 in the assay with OVCAR-3 ovarian and in the assay with OVCAR-5 ovarian was greater than 100 µM each time. The TGI with 786-0 renal, with COLO 205 colon, with HL-60(TB) leukemia, with HOP-62 NSCLC, in the assay on K-562 leukemia and with OVCAR-3 ovarian was greater than 100 µM throughout.
For the compound `Cc1ccc(S(=O)(=O)OCC/C(=C\[Si](C)(C)C)c2ccccc2)cc1`, the TGI in the assay with 786-0 renal, in the assay on COLO 205 colon, in the assay on HCT-116 colon, in the assay with HL-60(TB) leukemia, with HOP-62 NSCLC and with K-562 leukemia was greater than 100 µM throughout. Besides, the TGI with LOX IMVI melanoma, in the assay on OVCAR-3 ovarian and with OVCAR-5 ovarian was greater than 100 µM each time.
As to `COc1cc([C@@H]2c3cc4c(cc3[C@@H](NC(=O)c3ccc(C#N)cc3)C3COC(=O)[C@@H]32)OCO4)cc(OC)c1O` (some centres undefined), the TGI in the assay on 786-0 renal is 16 µM; in the assay on COLO 205 colon it was 16.4 µM; in the assay with HCT-116 colon, 3.29 µM; in the assay with HL-60(TB) leukemia, 11.1 µM; in the assay on HOP-62 NSCLC it was 0.673 µM; in the assay on K-562 leukemia it was greater than 100 µM. Besides, the TGI in the assay on LOX IMVI melanoma amounted to 2.34 µM; with OVCAR-3 ovarian, 4.66 µM; with OVCAR-5 ovarian it was 8.53 µM.
`OCc1cc2c(cn1)[nH]c1ccc(NCc3ccccc3)cc12`: the TGI with 786-0 renal was 58.4 µM; in the assay on COLO 205 colon, 37 µM; in the assay on HCT-116 colon, 38.4 µM; in the assay with HL-60(TB) leukemia, 31.4 µM; with HOP-62 NSCLC it was greater than 100 µM; with K-562 leukemia, greater than 100 µM. Moreover, the TGI with LOX IMVI melanoma was greater than 100 µM; with OVCAR-3 ovarian it was 69.6 µM; in the assay with OVCAR-5 ovarian it was greater than 100 µM.
As for `COC(=O)C1C(C(=O)OC)C2C(=O)C3C(C(=O)OC)C(C(=O)OC)C3C(=O)C12` (centres undefined), the TGI in the assay with 786-0 renal, with COLO 205 colon, in the assay on HCT-116 colon, in the assay on HL-60(TB) leukemia, in the assay on HOP-62 NSCLC and with K-562 leukemia was greater than 100 µM throughout. Further, the TGI in the assay on LOX IMVI melanoma and in the assay with OVCAR-5 ovarian was greater than 100 µM in each case.

These data come from PubChem BioAssay (NCI).
